Organism: Rattus norvegicus
Assay: Open TG-GATES - Regimen: Single
Format: toxicity, organism-based, Sprague-Dawley
Parameters: regimen Single, gender Male, age 6 weeks
Conditions: in vivo, iv, 0 mg/kg, route intravenous injection, dose level Control; for APTT / Bas / Eos / Fbg / Hb / Ht / Lym / MCH / MCHC / MCV / Mono / Neu / PT / Plat / RBC / Ret / WBC: tissue Blood; for KIDNEY_L / KIDNEY_R / KIDNEY_TOTAL: tissue Kidney; for LIVER: tissue Liver; for A/G / ALP / ALT / AST / BUN / CRE / Ca / Cl / DBIL / GLC / IP / K / LDH / Na / PL / RALB / TBIL / TC / TG / TP / gamma-GTP: tissue Plasma

NCCBr [BROMOETHANAMINE]
TERMINAL_BW (3 h): 221.8 g | APTT (3 h): 22.1 s | Bas (3 h): 0% | Eos (3 h): 0.6% | Fbg (3 h): 305.4 mg/dL | Hb (3 h): 13.4 g/dL | Ht (3 h): 39.5% | Lym (3 h): 82.4% | MCH (3 h): 22.5 pg | MCHC (3 h): 33.9% | MCV (3 h): 66.4 fL | Mono (3 h): 2.2% | Neu (3 h): 14.2% | PT (3 h): 16.2 s | Plat (3 h): 118.2 x10_4/uL | RBC (3 h): 594.4 x10_4/ul | Ret (3 h): 6.3% | WBC (3 h): 94.3 x10_2/uL | KIDNEY_L (3 h): 1 g | KIDNEY_R (3 h): 1 g | KIDNEY_TOTAL (3 h): 2 g | LIVER (3 h): 10.5 g | A/G (3 h): 1.2 | ALP (3 h): 1743.8 IU/L | ALT (3 h): 43.2 IU/L | AST (3 h): 76.2 IU/L | BUN (3 h): 13.2 mg/dL | CRE (3 h): 0.1 mg/dL | Ca (3 h): 10.8 mg/dL | Cl (3 h): 105.4 meq/L | DBIL (3 h): 0 mg/dL | GLC (3 h): 188.4 mg/dL | IP (3 h): 7.5 mg/dL | K (3 h): 4.1 meq/L | LDH (3 h): 174.6 IU/L | Na (3 h): 142.2 meq/L | PL (3 h): 131.8 mg/dL | RALB (3 h): 3 g/dL | TBIL (3 h): 0.018 mg/dL | TC (3 h): 70.2 mg/dL | TG (3 h): 79.8 mg/dL | TP (3 h): 5.4 g/dL | gamma-GTP (3 h): 1.6 IU/L | TERMINAL_BW (6 h): 213.6 g | APTT (6 h): 23.7 s | Bas (6 h): 0% | Eos (6 h): 0.8% | Fbg (6 h): 313.6 mg/dL | Hb (6 h): 13.5 g/dL | Ht (6 h): 39.2% | Lym (6 h): 80% | MCH (6 h): 21.6 pg | MCHC (6 h): 34.4% | MCV (6 h): 62.7 fL | Mono (6 h): 3% | Neu (6 h): 15.8% | PT (6 h): 15.8 s | Plat (6 h): 121.6 x10_4/uL | RBC (6 h): 624.8 x10_4/ul | Ret (6 h): 6.1% | WBC (6 h): 83.9 x10_2/uL | KIDNEY_L (6 h): 0.9 g | KIDNEY_R (6 h): 1 g | KIDNEY_TOTAL (6 h): 1.9 g | LIVER (6 h): 9.2 g | A/G (6 h): 1.1 | ALP (6 h): 1411.4 IU/L | ALT (6 h): 39 IU/L | AST (6 h): 71.2 IU/L | BUN (6 h): 11 mg/dL | CRE (6 h): 0.1 mg/dL | Ca (6 h): 10.3 mg/dL | Cl (6 h): 104.6 meq/L | DBIL (6 h): 0 mg/dL | GLC (6 h): 195.8 mg/dL | IP (6 h): 9.7 mg/dL | K (6 h): 4.1 meq/L | LDH (6 h): 189.6 IU/L | Na (6 h): 141 meq/L | PL (6 h): 145.2 mg/dL | RALB (6 h): 2.9 g/dL | TBIL (6 h): 0.014 mg/dL | TC (6 h): 87.2 mg/dL | TG (6 h): 47.8 mg/dL | TP (6 h): 5.4 g/dL | gamma-GTP (6 h): 1.6 IU/L | TERMINAL_BW (9 h): 218.3 g | APTT (9 h): 22.5 s | Bas (9 h): 0% | Eos (9 h): 0.8% | Fbg (9 h): 317.8 mg/dL | Hb (9 h): 13.3 g/dL | Ht (9 h): 39% | Lym (9 h): 78.6% | MCH (9 h): 21.3 pg | MCHC (9 h): 34% | MCV (9 h): 62.7 fL | Mono (9 h): 2% | Neu (9 h): 18% | PT (9 h): 16.3 s | Plat (9 h): 128.4 x10_4/uL | RBC (9 h): 623.8 x10_4/ul | Ret (9 h): 6.4% | WBC (9 h): 84.9 x10_2/uL | KIDNEY_L (9 h): 0.9 g | KIDNEY_R (9 h): 1 g | KIDNEY_TOTAL (9 h): 1.9 g | LIVER (9 h): 9.1 g | A/G (9 h): 1.2 | ALP (9 h): 1721.2 IU/L | ALT (9 h): 33.4 IU/L | AST (9 h): 64.6 IU/L | BUN (9 h): 13.6 mg/dL | CRE (9 h): 0.2 mg/dL | Ca (9 h): 10.4 mg/dL | Cl (9 h): 106.4 meq/L | DBIL (9 h): 0.002 mg/dL | GLC (9 h): 188.8 mg/dL | IP (9 h): 9.6 mg/dL | K (9 h): 4.2 meq/L | LDH (9 h): 152.6 IU/L | Na (9 h): 140.6 meq/L | PL (9 h): 124.4 mg/dL | RALB (9 h): 2.9 g/dL | TBIL (9 h): 0.022 mg/dL | TC (9 h): 68.8 mg/dL | TG (9 h): 63.4 mg/dL | TP (9 h): 5.4 g/dL | gamma-GTP (9 h): 1.6 IU/L | TERMINAL_BW (24 h): 226.9 g | APTT (24 h): 21.5 s | Bas (24 h): 0% | Eos (24 h): 0.8% | Fbg (24 h): 316.6 mg/dL | Hb (24 h): 13.6 g/dL | Ht (24 h): 39.1% | Lym (24 h): 79.2% | MCH (24 h): 21.2 pg | MCHC (24 h): 34.7% | MCV (24 h): 61.1 fL | Mono (24 h): 2.6% | Neu (24 h): 16.2% | PT (24 h): 16.4 s | Plat (24 h): 126.9 x10_4/uL | RBC (24 h): 640.8 x10_4/ul | Ret (24 h): 5.5% | WBC (24 h): 103.5 x10_2/uL | KIDNEY_L (24 h): 1 g | KIDNEY_R (24 h): 1 g | KIDNEY_TOTAL (24 h): 2 g | LIVER (24 h): 10.4 g | A/G (24 h): 1.1 | ALP (24 h): 1595.2 IU/L | ALT (24 h): 41.4 IU/L | AST (24 h): 71 IU/L | BUN (24 h): 18 mg/dL | CRE (24 h): 0.2 mg/dL | Ca (24 h): 10.8 mg/dL | Cl (24 h): 106 meq/L | DBIL (24 h): 0 mg/dL | GLC (24 h): 191.6 mg/dL | IP (24 h): 6.8 mg/dL | K (24 h): 4.9 meq/L | LDH (24 h): 222.8 IU/L | Na (24 h): 140.6 meq/L | PL (24 h): 147.6 mg/dL | RALB (24 h): 2.9 g/dL | TBIL (24 h): 0.006 mg/dL | TC (24 h): 75.8 mg/dL | TG (24 h): 134.2 mg/dL | TP (24 h): 5.5 g/dL | gamma-GTP (24 h): 2 IU/L
